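How tested: cells in 96-well plates exposed to compound for 48 hours at five concentrations. GI50: concentration for 50% inhibition of growth.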 Calls of active or inactive are those of the source. No stated cut-off is given here; in the data, active = GI50 up to about 1.1 µM and inactive = higher.
Key:
Assay in all cases: growth of human tumour cells (NCI), 48 h
A498 = tested on: A498
COLO 205 = tested on: COLO 205
HCC 2998 = tested on: HCC 2998
HOP-92 = tested on: HOP-92
IGROV-1 = tested on: IGROV-1
KM-20L2 = tested on: KM-20L2
M14 = tested on: M14
Malme-3M = tested on: Malme-3M
OVCAR-3 = tested on: OVCAR-3
OVCAR-8 = tested on: OVCAR-8
RPMI-8226 = tested on: RPMI-8226
SF-268 = tested on: SF-268
SF-295 = tested on: SF-295
SK-MEL-28 = tested on: SK-MEL-28
SK-MEL-2 = tested on: SK-MEL-2
SR = tested on: SR
MCF7 = tested on: MCF7
MDA-MB-231 = tested on: MDA-MB-231
MDA-N = tested on: MDA-N
PC-3 = tested on: PC-3

Measured: GI50

Nc1nc(CCc2n[nH]c(N)n2)n[nH]1
inactive: A498 > 100 µM | COLO 205 > 100 µM | HCC 2998 > 100 µM | HOP-92 > 100 µM | IGROV-1 > 100 µM | KM-20L2 > 100 µM | M14 > 100 µM | Malme-3M > 100 µM | OVCAR-3 > 100 µM | OVCAR-8 > 100 µM | RPMI-8226 > 100 µM | SF-268 > 100 µM | SF-295 > 100 µM | SK-MEL-28 > 100 µM | SK-MEL-2 > 100 µM

N#CC(C#N)=Cc1ccc(Oc2ccccc2)cc1
inactive: A498 > 100 µM | COLO 205 45.5 µM | HCC 2998 97.5 µM | IGROV-1 29.9 µM | KM-20L2 > 91.4 µM | M14 22.2 µM | Malme-3M 21.7 µM | OVCAR-3 26.4 µM | OVCAR-8 25.5 µM | RPMI-8226 18.1 µM | SF-268 27.9 µM | SF-295 22.2 µM | SK-MEL-28 15.8 µM | SK-MEL-2 24.3 µM | SR 41.3 µM

C/C(=N\NC(N)=S)C(CN(CC(C)C)CC(C)C)C(=O)Nc1ccc(C)cc1C (stereo unspecified)
inactive: A498 > 100 µM | COLO 205 > 100 µM | HCC 2998 > 100 µM | HOP-92 > 100 µM | IGROV-1 > 100 µM | KM-20L2 > 100 µM | M14 > 100 µM | Malme-3M > 100 µM | OVCAR-3 > 100 µM | OVCAR-8 > 100 µM | SF-268 > 100 µM | SF-295 > 100 µM | SK-MEL-28 > 100 µM | SK-MEL-2 > 100 µM | SR > 100 µM

COC(=O)N/N=C/C(=C/Nc1ccccc1)[N+](=O)[O-]
inactive: COLO 205 > 100 µM | HCC 2998 > 100 µM | HOP-92 21 µM | IGROV-1 > 100 µM | KM-20L2 > 100 µM | M14 > 100 µM | OVCAR-3 > 100 µM | OVCAR-8 > 100 µM | RPMI-8226 > 100 µM | SF-268 > 100 µM | SK-MEL-28 > 100 µM | SR > 100 µM

COS(=O)CCOC(=O)c1ccccc1SSc1ccccc1C(=O)OCCS(=O)OC (stereo unspecified)
inactive: A498 > 100 µM | COLO 205 23.4 µM | HOP-92 25.1 µM | IGROV-1 > 100 µM | KM-20L2 61 µM | M14 20 µM | Malme-3M 18.6 µM | OVCAR-3 22.1 µM | OVCAR-8 22.3 µM | RPMI-8226 18.9 µM | SF-268 32.3 µM | SF-295 33.2 µM | SK-MEL-28 30.7 µM | SK-MEL-2 37.7 µM

CN(C)CC1(C)CC/C(=C\c2ccccc2)C1=O (stereo unspecified)
inactive: A498 > 100 µM | COLO 205 > 100 µM | HCC 2998 > 100 µM | HOP-92 > 100 µM | IGROV-1 > 100 µM | KM-20L2 > 100 µM | M14 > 100 µM | Malme-3M > 100 µM | OVCAR-3 > 100 µM | OVCAR-8 > 100 µM | RPMI-8226 27.5 µM | SF-268 > 100 µM | SF-295 > 100 µM | SK-MEL-28 > 100 µM | SK-MEL-2 > 100 µM

C/C(=N\NC(=O)CC(=O)Nc1ccc(Cl)cc1)c1cc2ccccc2oc1=O
inactive: COLO 205 > 100 µM | IGROV-1 > 100 µM | KM-20L2 > 100 µM | M14 > 100 µM | Malme-3M > 100 µM | OVCAR-3 > 100 µM | OVCAR-8 > 100 µM | RPMI-8226 > 100 µM | SF-295 > 100 µM | SK-MEL-28 > 100 µM

O=S(=O)(c1ccccc1)N1CCC1c1ccccc1 (stereo unspecified)
inactive: A498 > 100 µM | COLO 205 > 100 µM | HCC 2998 > 100 µM | HOP-92 26.1 µM | IGROV-1 > 100 µM | KM-20L2 > 100 µM | M14 > 100 µM | Malme-3M > 100 µM | OVCAR-3 > 100 µM | OVCAR-8 > 100 µM | RPMI-8226 43.2 µM | SF-268 87.1 µM | SF-295 > 100 µM | SK-MEL-28 > 100 µM | SK-MEL-2 > 100 µM

O=C(CCOS(=O)(=O)CF)N1CCN(C(=O)CCOS(=O)(=O)CF)CC1
inactive: A498 > 100 µM | COLO 205 > 80.7 µM | HCC 2998 > 100 µM | HOP-92 35.6 µM | IGROV-1 > 69.5 µM | M14 58.6 µM | MCF7 18.6 µM | MDA-MB-231 > 100 µM | MDA-N > 100 µM | Malme-3M > 57.3 µM | OVCAR-3 > 100 µM | OVCAR-8 60.1 µM | PC-3 > 100 µM | RPMI-8226 > 46.5 µM | SF-268 24.4 µM | SF-295 32.6 µM | SK-MEL-28 > 100 µM | SK-MEL-2 > 100 µM | SR 9.08 µM

O=[N+]([O-])c1nccn1CCCNc1ccnc2cc(Cl)ccc12
inactive: A498 5.08 µM | COLO 205 3.05 µM | HCC 2998 18.2 µM | HOP-92 > 7.98 µM | IGROV-1 7.71 µM | M14 4.5 µM | MCF7 50 µM | MDA-MB-231 6.59 µM | MDA-N 7.29 µM | Malme-3M 29 µM | OVCAR-3 1.77 µM | OVCAR-8 7.4 µM | PC-3 5.09 µM | RPMI-8226 4.34 µM | SF-268 7.48 µM | SF-295 3.8 µM | SK-MEL-28 > 9.86 µM | SK-MEL-2 4.29 µM | SR 2.81 µM

CC(=O)NC1C(OCc2ccccc2)OC(COC(=O)CCCCCCCCCCNc2ccc([N+](=O)[O-])c3[nH]c4ccccc4c(=O)c23)C(O)C1OC(C)C(=O)NC(C)C(=O)NC(CCC(N)=O)C(=O)OCc1ccccc1 (stereo unspecified)
inactive: A498 > 100 µM | COLO 205 > 100 µM | HCC 2998 > 100 µM | IGROV-1 > 100 µM | KM-20L2 > 100 µM | M14 > 100 µM | OVCAR-3 > 100 µM | OVCAR-8 > 100 µM | RPMI-8226 > 100 µM | SF-268 > 100 µM | SF-295 > 100 µM | SK-MEL-28 > 100 µM | SK-MEL-2 > 100 µM | SR > 100 µM

Cc1ccc(S(=O)(=O)CNC(=S)CCCC(=S)NCS(=O)(=O)c2ccc(C)cc2)cc1
inactive: A498 > 100 µM | COLO 205 > 100 µM | HCC 2998 > 100 µM | HOP-92 20.2 µM | IGROV-1 > 100 µM | KM-20L2 > 100 µM | M14 > 100 µM | Malme-3M 50.7 µM | OVCAR-3 48.9 µM | OVCAR-8 > 100 µM | RPMI-8226 21.4 µM | SF-268 > 100 µM | SF-295 > 100 µM | SR 32.7 µM

COc1ccc(CCc2ccc3c(c2)OCO3)cc1
inactive: A498 > 100 µM | COLO 205 > 100 µM | HCC 2998 79.4 µM | HOP-92 36.8 µM | IGROV-1 70.5 µM | M14 49.8 µM | MCF7 35.8 µM | MDA-MB-231 > 100 µM | MDA-N 28.9 µM | Malme-3M > 100 µM | OVCAR-3 31.6 µM | OVCAR-8 > 100 µM | PC-3 34.6 µM | RPMI-8226 36.6 µM | SF-268 > 100 µM | SF-295 65 µM | SK-MEL-28 > 100 µM | SK-MEL-2 31.5 µM | SR 17.5 µM

Source: ChEMBL document CHEMBL1201862, “PubChem BioAssay data set” (2004)
